The experiment concerns the target Glycogen synthase kinase-3 beta (Homo sapiens, UniProt P49841). Kind of experiment: GSK3beta kinase inhibitor potency, dose response, biochemical, luminescence, cell-free homogeneous, retest (AID 434954).
Chain of Glycogen synthase kinase-3 beta (P49841 whole entry): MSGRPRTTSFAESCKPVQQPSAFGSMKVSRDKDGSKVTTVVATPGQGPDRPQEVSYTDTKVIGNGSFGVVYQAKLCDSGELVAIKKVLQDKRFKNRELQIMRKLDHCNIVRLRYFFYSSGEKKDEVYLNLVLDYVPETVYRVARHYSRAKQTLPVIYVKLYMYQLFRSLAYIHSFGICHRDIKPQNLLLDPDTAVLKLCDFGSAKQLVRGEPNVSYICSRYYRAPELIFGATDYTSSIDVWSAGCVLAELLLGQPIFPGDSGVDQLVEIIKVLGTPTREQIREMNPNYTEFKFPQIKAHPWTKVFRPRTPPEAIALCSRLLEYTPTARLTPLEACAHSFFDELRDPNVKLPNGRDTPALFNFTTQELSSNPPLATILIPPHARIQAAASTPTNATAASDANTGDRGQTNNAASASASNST
The compound `CCOC(=O)CC(=O)CSc1ccc2nnc(-c3cccc(F)c3)n2n1` [ethyl 4-[[3-(3-fluorophenyl)-[1,2,4]triazolo[4,3-b]pyridazin-6-yl]sulfanyl]-3-oxobutanoate] displayed an EC50 of more than 300 µM.

As to `CCOC(=O)c1nnn(-c2nonc2N)c1-c1ccc(OCC)cc1` [1-(4-amino-1,2,5-oxadiazol-3-yl)-5-(4-ethoxyphenyl)-4-triazolecarboxylic acid ethyl ester], the EC50 was determined as 20 µM. This lies in the double-digit micromolar range.

`O=C1Nc2ccccc2C1=Cc1cnc[nH]1` [SMR000180717] had an EC50 of 2.99 µM.

In the case of `Cc1cccc(Nc2nc(N)c([N+](=O)[O-])c(NCc3ccco3)n2)c1` [SMR000220105], the EC50 amounted to 8.4 µM. Against the preceding compound, the EC50 is about 2.8-fold higher.

On to `COc1ccc(C2CC(=O)c3c(O)cc(O)cc3O2)c(CC=C(C)C)c1OC` (stereo not given) [antiarone F], for which the EC50 was more than 300 µM.

`CCOC(=O)c1ccc(NS(=O)(=O)c2ccc3c(c2)NC(=O)CCS3)cc1` [SMR000630284]: the EC50 was more than 300 µM.

`CCOC(=O)Cc1csc(NC(=O)CSc2nc(-c3ccccc3)c(C#N)c(=O)[nH]2)n1` [MLS000690700]: the EC50 was more than 300 µM.

Compound `CCCN(CCC)Cc1c(C(=O)NN=Cc2ccncc2)nnn1-c1nonc1N` [1-(4-amino-1,2,5-oxadiazol-3-yl)-5-[(dipropylamino)methyl]-N-(pyridin-4-ylmethylideneamino)triazole-4-carboxamide] showed an EC50 of 0.879 µM.

In turn, `Cc1cccc(Nc2nc(NCCCN3CCOCC3)nc(N)c2[N+](=O)[O-])c1` [N4-(3-methylphenyl)-N2-(3-morpholin-4-ylpropyl)-5-nitro-pyrimidine-2,4,6-triamine] yielded an EC50 of 1.72 µM. This EC50 is about 2-fold higher than that of the compound before.

`Cc1ccc(-n2c(C)nc3c(cnn3-c3ccc(F)cc3)c2=O)cc1C` [SMR000026457] yielded an EC50 of more than 300 µM.

The values are drawn from BindingDB's records for doi:10.7270/Q2TX3CTT (Broad Institute, 2010).
